Assays:
[1] = test system: Lactococcus lactis CNRZ 117; experiment: Bioactivity assay, solid agar medium test (zones of inhibition); assay type: cell-based; details: for zone of inhibition, both modified peptides together: prepared in vitro: HalA1-Xa/HalA2-Xa modified by HalM1/HalM2, leader removed by Factor Xa, both peptides applied
Experimental: Bioactivity Assay. The inhibitory activity of haloduracin isolated from the producing strain and prepared in vitro was assayed using the solid agar medium test. Liquid molten GM17 agar (4% M17, 0.5% glucose, 1.5% agar) was cooled to 50° C. and seeded with an overnight culture of the indicator strain Lactococcus lactis CNRZ 117. After agar solidification in a Petri dish, samples were applied to a small well created in the medium. Assay samples were typically concentrated to dryness using a speed vac and rehydrated in a small volume (5-15 μL) of sterile water for application purposes. The cell-free solution isolated from B. halodurans C-125 was applied directly to the plate without further concentration. Plates were incubated overnight at room temperature and zones of inhibition were observed the next day.

[2] = Ltn1 and Ltn2 acting in synergy in a 1:1 ratio; cited from earlier work

Hal1: mature haloduracin alpha peptide from HalA1, SEQ ID NO:5; three dehydrations and one disulfide
zones of growth inhibition / antimicrobial activity after iodoacetamide modification ([1]; peptides isolated from B. halodurans, reduced and alkylated with iodoacetamide (Hal1 two adducts, Hal2 zero adducts), excess IAA removed): did not abolish antimicrobial activity

lacticin 3147
antibacterial activity [2]: nanomolar antibacterial activity

haloduracin: two-component lantibiotic of Bacillus halodurans C-125 composed of the modified peptides Hal1 (SEQ ID NO:5) and Hal2 (SEQ ID NO:6)
zone of growth inhibition ([1]; cell-free supernatant isolated from producer strain B. halodurans C-125, applied to indicator strain): a zone of growth inhibition was produced | zone of inhibition, both modified peptides together [1]: comparable to the bactericidal effects exhibited by the peptides isolated from the producer strain | zone of inhibition, both modified peptides together ([1]; listed as haloduracin peptides prepared in vitro): zone of inhibition comparable to that produced by Hal1 and Hal2 isolated from B. halodurans

— patent US7985837B2, “Two component Bacillus lantibiotic and methods for producing and using the same” (The Board of Trustees of the University of Illinois, priority 2006, dated 2011)
